Experimental data taken from patent publication US6358883B1, “Pesticidal and parasiticidal use of 1-aryl-1-(substituted thio, sulfinyl and sulfonyl)-2-nitroethane compounds” (American Cyanamid Company, priority 1998, dated 2002).

Key:
Type in all cases: in vivo
[1] = test system: M. incognita (Root Knot Nematode) larvae; experiment: Evaluation of test compounds against M. incognita larvae in microtiter plate wells (movement score); settings: larvae scored for movement after 20-24 hours; further: key: A score of '9' indicates inactive worms with a straight, sticklike morphology; A score of '8' indicates inactive worms with a limp, curled or curved morphology; A score of '7' indicates dead/paralyzed worms after 72 hours
Experimental: Evaluation of Test Compounds Against M. incognita (Root Knot Nematode)
Newly emerged M. incognita larvae are suspended in S Medium (buffered salt solution) to a concentration of 50-65 worms per 50 μl. 50 μl of the worm suspension are pipetted into microtiter plate wells containing the test compounds. The plates are then covered with plactic plate sealers to reduce loss of volume by evaporation. After 20-24 hours of incubation, the larvae are scored for movement. Wells containing obviously dead/paralyzed larvae are scored as positive. […] A score of “7” indicates dead/paralyzed worms after […].

[2] = test system: Spodoptera eridania, 2nd instar larvae, southern armyworm (SAW); experiment: Southern armyworm (SAW) leaf dip test; set-up: key: 0 = no effect; 1 = 10-25% kill; 2 = 26-35% kill; 3 = 36-45% kill; 4 = 46-55% kill; 5 = 56-65% kill; 6 = 66-75% kill; 7 = 76-85% kill; 8 = 86-99% kill; 9 = 100% kill
Experimental: (§1) Test solutions are prepared by dissolving the test compound in a 35% acetone in water mixture to give a concentration of 10,000 ppm. Subsequent dilutions are made with water as needed.
Spodoptera eridania, 2nd Instar Larvae, Southern Armyworm (SAW)
A Sieva lima bean leaf expanded to 7-8 cm in length is dipped in the test solution with agitation for 3 seconds and allowed to dry in a hood. The leaf is then placed in a 100×10 mm petri dish containing a damp filter paper on the bottom and ten 2nd instar caterpillars. At 5 days, observations are made of mortality, reduced feeding, or any interference with normal molting.

[3] = test system: Diabrotica virgifera virgifera Leconte, 2nd instar western corn rootworm (WCR); experiment: Western corn rootworm (WCR) soil test; set-up: key: 0 = no effect; 1 = 10-25% kill; 2 = 26-35% kill; 3 = 36-45% kill; 4 = 46-55% kill; 5 = 56-65% kill; 6 = 66-75% kill; 7 = 76-85% kill; 8 = 86-99% kill; 9 = 100% kill
Experimental: Test solutions are prepared by dissolving the test compound in a 35% acetone in water mixture to give a concentration of 10,000 ppm. Subsequent dilutions are made with water as needed. Diabrotica virgifera virgifera Leconte, 2nd Instar Western Corn Rootworm (WCR) One cc of fine talc is placed in a 30 mL wide-mouth screw-top glass jar. One mL of the appropriate acetone test solution is pipetted onto the talc so as to provide 1.25 mg of active ingredient per jar. The jars are set under a gentle air flow until the acetone is evaporated. The dried talc is loosened, 1 cc of millet seed is added to serve as food for the insects and 25 mL of moist soil is added to each jar. The jar is capped and the contents thoroughly mixed mechanically. Following this, ten 2nd instar rootworms are added to each jar and the jars are loosely capped to allow air exchange for the larvae. The treatments are held for 5 days when mortality counts are made. Missing larvae are presumed dead, since they decompose rapidly and cannot be found. The concentrations of active ingredient used in this test correspond approximately to 50 kg/ha. [table]

[4] = test system: Tetranychus urticae (OP-resistant strain), 2-spotted spider mite (TSM); experiment: 2-spotted spider mite (TSM) plant dip test; set-up: key: 0 = no effect; 1 = 10-25% kill; 2 = 26-35% kill; 3 = 36-45% kill; 4 = 46-55% kill; 5 = 56-65% kill; 6 = 66-75% kill; 7 = 76-85% kill; 8 = 86-99% kill; 9 = 100% kill; settings: mortality after 2 days
Experimental: as §1
Tetranychus urticae (OP-resistant strain), 2-spotted Spider Mite (TSM)
Sieva lima bean plants with primary leaves expanded to 7-8 cm are selected and cut back to one plant per pot. A small piece is cut from an infested leaf taken from the main colony and placed on each leaf of the test plants. This is done about 2 hours before treatment to allow the mites to move over to the test plant to lay eggs. The size of the cut, infested leaf is varied to obtain about 100 mites per leaf. At the time of test treatment, the piece of leaf used to transfer the mites is removed and discarded. The newly-infested plants are dipped in the test solution for 3 seconds with agitation and set in the hood to dry. After 2 days, one leaf is removed and mortality counts are made.

[5] = test system: Aphis gossypii, cotton aphid (CA); experiment: Cotton aphid (CA) cotyledon dip test; set-up: key: 0 = no effect; 1 = 10-25% kill; 2 = 26-35% kill; 3 = 36-45% kill; 4 = 46-55% kill; 5 = 56-65% kill; 6 = 66-75% kill; 7 = 76-85% kill; 8 = 86-99% kill; 9 = 100% kill; settings: mortality after 5 days
Experimental: Test solutions are prepared by dissolving the test compound in a 35% acetone in water mixture to give a concentration of 10,000 ppm. Subsequent dilutions are made with water as needed. Aphis gossypii, Cotton Aphid (CA) Cotton plants at the cotyledon stage are selected and cut back to one plant per pot. A heavily infested leaf is taken from the main colony and placed on top of each cotyledon. The aphids are allowed to transfer to the host plant overnight. At the time of test treatment, the leaf used to transfer the aphids is removed and discarded. The cotyledons are dipped in the test solution and allowed to dry. After 5 days, mortality counts are made. [table]

[6] = test system: Diabrotica undecimpunctata howardi, eggs-southern corn rootworm (SCR-Eggs); experiment: Southern corn rootworm eggs (SCR-Eggs) treated diet test; set-up: key: 0 = no effect; 1 = 10-25% kill; 2 = 26-35% kill; 3 = 36-45% kill; 4 = 46-55% kill; 5 = 56-65% kill; 6 = 66-75% kill; 7 = 76-85% kill; 8 = 86-99% kill; 9 = 100% kill; settings: mortality after 7 days
Experimental: Test solutions are prepared by dissolving the test compound in a 35% acetone in water mixture to give a concentration of 10,000 ppm. Subsequent dilutions are made with water as needed. Spodoptera eridania, Eggs-southern Armyworm and Diabrotica undecimpunctata howardi, Eggs-southern Corn Rootworm (SAW-Eggs) and (SCR-Eggs) Wells containing artificial diet are treated with the test solutions and dried. The appropriate insect eggs are then placed in the wells. The wells are covered with vented, adhesive, clear plastic covers. After 7 days, mortality counts are made. [table]

[7] = test system: C. elegans (Bristol strain); experiment: Evaluation of test compounds against C. elegans (motility, 96-well plate); set-up: key: 9=complete kill in 4 hours; 8=complete kill in 24 hours; 7=markedly reduced motility in approximately 95% of worms in 24 hours; 0=normal motility, same as controls; settings: motility at 4 and 24 hours
Experimental: Evaluation of Test Compounds Against C. elegans Cultures of C. elegans (Bristol strain from J. Lewis) are maintained on E. coli lawns on NG Agar Plates at 20° C. New cultures are established weekly. Nematodes for testing are washed from cultures using Na buffer. Compounds are dissolved in 80% acetone. The test material is micropipetted (25 μl) into a single well of a 96-well sterile tissue culture plate and the solvent allowed to evaporate. A freshly prepared volume (50 μl) of C. elegans in Na buffer is micropipetted into each treated well and several control wells per plate. Plates are incubated at 20° C. Observations for efficacy are made under a dissecting microscope at 4 and 24 hours post-immersion. Immediately prior to reading the plate, it is gently tapped to stimulate the movement of the worms. Activity is judged subjectively, but semi-quantitatively, based on the drug effects on motility of the adults and larvae.

SMILES | M. incognita (150 ppm) score [1] | SAW (300 ppm) rating [2] | WCR (50 ppm) rating [3] | TSM (300 ppm) rating [4] | CA (300 ppm) rating [5] | SCR Eggs (1000 ppm) rating [6] | Rating Against C. elegans (150 ppm) [7]
COC(=O)CSC(C[N+](=O)[O-])c1ccccc1Cl (stereo not drawn) [Example 88] | 8 | 0 | 0 | 0 | 0 | 0 | 
CCCSC(C[N+](=O)[O-])c1ccccc1Cl (racemic) [Example 94] | 0 | 0 | 0 | 0 | 0 | 0 | 0
CC(C)CCCCCOC(=O)CSC(C[N+](=O)[O-])c1ccccc1F (stereo not drawn) [Example 42] | 0 | 0 | 6 (6 = 66-75% kill) | 0 | 0 | 9 (9 = 100% kill) | 0
C=CCSC(C[N+](=O)[O-])c1ccccc1F (stereo not drawn) [Example 46] | 9 | 1 (1 = 10-25% kill) | 9 (9 = 100% kill) | 0 | 0 | 0 | 7
CCCSC(C[N+](=O)[O-])c1ccc(C(C)C)cc1 (stereo not drawn) [Example 37] | 0 | 0 | 0 | 0 | 0 | 0 | 0
CCCCOC(=O)CSC(C[N+](=O)[O-])c1ccccc1F (stereo not drawn) [Example 41] | 9 | 1 (1 = 10-25% kill) | 9 (9 = 100% kill) | 0 | 0 | 0 | 7
COC(=O)CSC(C[N+](=O)[O-])c1ccccc1F (stereo not drawn) [Example 39] | 9 | 4 (4 = 46-55% kill) | 8 (8 = 86-99% kill) | 0 | 0 | 0 | 9
O=[N+]([O-])CC(SCc1ccccc1)c1ccccc1Cl (racemic) [Example 93] | 0 | 0 | 0 | 0 | 0 | 0 | 0
O=C(O)CSC(C[N+](=O)[O-])c1ccccc1Cl (racemic) [Example 96] | 9 | 0 | 0 | 0 | 0 | 0 | 9
CC(C)c1ccc(C(C[N+](=O)[O-])SCc2ccccc2)cc1 (stereo not drawn) [Example 36] | 0 | 1 (1 = 10-25% kill) | 0 | 0 | 0 | 7 (7 = 76-85% kill) | 0
O=C(O)CSC(C[N+](=O)[O-])c1ccc(F)cc1 (stereo not drawn) [Example 63] | 9 | 0 | 0 | 0 | 0 |  | 9
O=[N+]([O-])CC(SCc1ccccc1)c1ccc(Cl)cc1 (stereo not drawn) [Example 75] | 0 | 0 | 0 | 0 | 0 |  | 0
Cc1ccc(C(C[N+](=O)[O-])SCC(=O)O)cc1 (stereo not drawn) [Example 65] | 9 | 0 | 9 (9 = 100% kill) | 0 | 0 |  | 9
CCCCOC(=O)CSC(C[N+](=O)[O-])c1ccc(Cl)cc1 (stereo not drawn) [Example 72] | 0 | 0 | 0 | 0 | 0 |  | 0
COC(=O)CSC(C[N+](=O)[O-])c1ccc(Cl)cc1 (stereo not drawn) [Example 70] | 9 | 0 | 0 | 0 | 0 |  | 7
CCCSC(C[N+](=O)[O-])c1ccc(Cl)cc1 (stereo not drawn) [Example 76] | 0 | 0 | 0 | 0 | 0 |  | 7
COc1cccc(C(C[N+](=O)[O-])SCC(=O)O)c1 (stereo not drawn) [Example 68] | 9 | 0 | 3 (3 = 36-45% kill) | 0 | 0 |  | 8
